Reference: US20030108576A1, “Composition” (Colgate-Palmolive Company, priority 2001, published 2003)

Experiment: Vitamin E stability aging of the compositions in clear PET packaging
Assay type: physicochemical
Description: Samples of each example are put on stability aging using clear PET packaging at room temperature, 77° F.; high temperature, 110° F.; and in the window for natural sunlight exposure. Samples are evaluated for vitamin content initially, then again at 4,8, and 13 weeks. Below are the results.

SMILES: CC(C)(C)c1cc(O)ccc1O [2-tertiary butyl hydroquinone]
- retention of vitamin E compared with other antioxidants (77° F. and 110° F.): essentially equivalent to the other antioxidants
- retention of vitamin E in sunlight compared with other test antioxidants (sunlight): substantially more retention of vitamin E in sunlight than any of the other test antioxidants
